{"source": "patent US6667153B1", "about": "(priority 2000, dated 2003)", "key": {"[1]": {"system": "E. coli GW2100/pTJgfp (umuC'-gfp fusion)", "conditions": "for Mean fluorescence emission: 24 hours incubation"}, "[2]": {"system": "E. coli GW2100/pTJgfp (umuC'::gfp)", "conditions": "nutrient broth, FIG. 3"}, "[3]": {"system": "arg-3 marker in E. coli strain GW2100/pTJgfp", "conditions": "for Mean revertant colony numbers: 37 parallel cultures, 4 day plate incubation"}}, "note": "Read-outs that look alike come from different tables or passages of the source.", "data": [{"smiles": "COS(C)(=O)=O", "note": "[MMS, methylmethane sulphonate]", "values": [{"measurement": "K.S statistic, fluorescence emission, mutagen versus the control", "setting": "[1]; MMS 13 μg/ml", "value": 3.09}, {"measurement": "Mean fluorescence emission", "setting": "[1]; MMS 13 μg/ml, 84 parallel cultures", "value": 13.22}, {"measurement": "K.S statistic, fluorescence emission, mutagen versus the control", "setting": "[1]; MMS 325 μg/ml", "value": 6.48}, {"measurement": "Mean fluorescence emission", "setting": "[1]; MMS 325 μg/ml, 84 parallel cultures", "value": 36.5}, {"measurement": "mutagenic activity by shift in mean fluorescent output per culture", "setting": "[1]; MMS 325 μg/ml, 84 parallel cultures, FIG. 10", "value": "pronounced"}, {"measurement": "fluorescence level compared with the 0 dose control", "setting": "[2]; MMS 13 μg/ml", "value": "no significant difference"}, {"measurement": "fluorescence level (cellular toxicity)", "setting": "[2]; MMS 1300 μg/ml", "value": "lower level of fluorescence"}, {"measurement": "fluorescence level compared with the 0 dose control", "setting": "[2]; MMS 325 and 650 μg/ml", "value": "dose-dependent manner"}, {"measurement": "K.S statistic, revertant colony numbers, mutagen versus the control", "setting": "[3]; MMS 13 μg/ml", "value": 2.711}, {"measurement": "Mean revertant colony numbers", "setting": "[3]; MMS 13 μg/ml", "value": 8.84}, {"measurement": "mutagenicity through change in culture to culture variation in mutant numbers (mean unchanged)", "setting": "[3]; MMS 13 μg/ml, FIG. 8", "value": "mutagenicity is still detectable"}, {"measurement": "K.S statistic, revertant colony numbers, mutagen versus the control", "setting": "[3]; MMS 325 μg/ml", "value": 3.889}, {"measurement": "Mean revertant colony numbers", "setting": "[3]; MMS 325 μg/ml", "value": 17.95}, {"measurement": "response in mean number of revertant colonies per culture sample", "setting": "[3]; MMS 325 μg/ml, FIG. 8", "value": "clearly positive result"}]}]}
